Reference: patent US12345644B2, “System and method for assessing cellular metabolic activity” (Trustees of Tufts College, priority 2016, dated 2025)

Test system: HL-1 cardiomyocytes
Conditions: HL-1 cells, CCCP 50 μM, imaged right after exposure, versus vehicle control, n=4 cultures/group
Experimental: Mouse HL-1 cardiomyocytes are maintained in Claycomb media (Sigma-Alrich). Images are taken right after exposure to low-dose CCCP (50 μM) or vehicle. We prepared 4 dishes for each group, and acquired a total of 16 fields per group (4 fields per dish).
TPEF Data Acquisition: For TPEF imaging, cell cultures are placed in home-made micro-incubator system, which maintained 37° C. and 5% CO2 within a humidified environment throughout the imaging session. […] Images are obtained using a custom-built microscope with a 40×water dipping objective (NA 1.1) or a 25×water dipping objective (NA 0.95, for in vivo imaging only) equipped with a tunable (710-920 nm) Ti: sapphire laser (Mai Tai; Spectra Physics; Mountain View, Calif.). Emission events are registered by a photomultiplier tube (PMT) detector attached to a commercial time-correlated single photon counting (TCSPC) electronics module. To isolate NADH fluorescence, a 460(±20) nm emission filter (Chroma, ET460/40M-2P), corresponding to the NADH emission peak, was placed before the detector. NADH fluorescence images are acquired from this 460 nm detector using 755 nm excitation. FAD fluorescence was isolated using 525(±25) nm emission filter (Chroma, ET525/50M-2P) and 860 nm excitation. […] The laser power and PMT gain are recorded for each image and used to normalize fluorescence intensity.
Optical Redox Ratio Calculation: To process the optical redox ratio, firstly the fluorescence intensity of either NADH or FAD at each pixel was taken as the total photon counts detected during the integration time without spatial binning. For cell cultures, the cytoplasm of cells was selected based on the intensity threshold (FIG. 2F), while the segmentation of cell cytoplasm and lipid areas for BAT tissues was extracted by a combination of fluorescence intensity and lifetime information (FIGS. 71-7F). Pixel-wise redox ratio maps are created by normalized fluorescence intensities as: FAD/(FAD+NADH). […]

carbonyl cyanide m-chlorophenyl hydrazine [CCCP]
bound NADH fraction (NADH fluorescence lifetime, phasor analysis): increase | mitochondrial clustering (β from PSD): increased | optical redox ratio FAD/(NADH+FAD): elevated
